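Five concentrations, 48 hours, 96-well plates. GI50 marks 50% less growth.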 Active and inactive are the calls of the source. Rule as the data show it: active = GI50 up to about 1.1 µM and inactive = higher.
Experiments:
Experiment in all cases: NCI anticancer screen, dose series, 48 h
SF-268 = test system: SF-268
UACC-257 = test system: UACC-257
RPMI-8226 = test system: RPMI-8226
HCT-116 = test system: HCT-116
MOLT-4 = test system: MOLT-4
KM12 = test system: KM12
A498 = test system: A498
CAKI-1 = test system: CAKI-1
HOP-62 = test system: HOP-62
TK-10 = test system: TK-10
HCT-15 = test system: HCT-15
OVCAR-5 = test system: OVCAR-5
HOP-92 = test system: HOP-92
IGROV-1 = test system: IGROV-1
Malme-3M = test system: Malme-3M
HL-60 = test system: HL-60
NCI-H522 = test system: NCI-H522

Structure (SMILES): CN(C)C(=O)C(F)(F)C(c1ccccc1)C1C(=O)N(C)C(=O)N(C)C1=O (configuration not stated)
- GI50 (SF-268): > 100 µM (inactive)
- GI50 (UACC-257): > 100 µM (inactive)
- GI50 (RPMI-8226): > 100 µM (inactive)
- GI50 (HCT-116): > 100 µM (inactive)
- GI50 (MOLT-4): > 100 µM (inactive)
- GI50 (KM12): > 100 µM (inactive)
- GI50 (A498): > 100 µM (inactive)
- GI50 (CAKI-1): > 100 µM (inactive)
- GI50 (HOP-62): > 100 µM (inactive)
- GI50 (TK-10): > 100 µM (inactive)
- GI50 (HCT-15): > 100 µM
- GI50 (OVCAR-5): > 100 µM (inactive)
- GI50 (HOP-92): > 100 µM (inactive)

Structure (SMILES): Cc1cc2c(cc1Cl)SC(NNC(=O)c1ccccc1)=NS2(=O)=O
- GI50 (SF-268): > 10 µM (inactive)
- GI50 (UACC-257): > 10 µM (inactive)
- GI50 (IGROV-1): > 10 µM (inactive)
- GI50 (Malme-3M): > 10 µM (inactive)
- GI50 (RPMI-8226): > 10 µM (inactive)
- GI50 (HCT-116): > 10 µM (inactive)
- GI50 (MOLT-4): > 10 µM (inactive)
- GI50 (HL-60): > 10 µM (inactive)
- GI50 (NCI-H522): > 10 µM (inactive)
- GI50 (KM12): > 10 µM (inactive)
- GI50 (A498): > 10 µM (inactive)
- GI50 (CAKI-1): > 10 µM (inactive)
- GI50 (HOP-62): > 10 µM (inactive)
- GI50 (TK-10): > 10 µM (inactive)
- GI50 (HCT-15): > 10 µM
- GI50 (OVCAR-5): > 10 µM (inactive)

Structure (SMILES): C=CC1(CCC(Br)C(C)(C)Cl)CO1 (configuration not stated)
- GI50 (SF-268): > 10 µM (inactive)
- GI50 (IGROV-1): > 10 µM (inactive)
- GI50 (Malme-3M): > 10 µM (inactive)
- GI50 (RPMI-8226): > 10 µM (inactive)
- GI50 (HCT-116): > 10 µM (inactive)
- GI50 (MOLT-4): > 10 µM (inactive)
- GI50 (NCI-H522): > 10 µM (inactive)
- GI50 (KM12): > 10 µM (inactive)
- GI50 (A498): > 10 µM (inactive)
- GI50 (CAKI-1): > 10 µM (inactive)
- GI50 (HOP-62): > 10 µM (inactive)
- GI50 (TK-10): > 10 µM (inactive)
- GI50 (HCT-15): > 10 µM
- GI50 (OVCAR-5): > 10 µM (inactive)
- GI50 (HOP-92): > 10 µM (inactive)

Structure (SMILES): O=C(c1ccccc1)N1OCCC1Nc1ccc(Br)cc1 (configuration not stated)
- GI50 (SF-268): 5.21 µM (inactive)
- GI50 (UACC-257): > 10 µM (inactive)
- GI50 (IGROV-1): > 10 µM (inactive)
- GI50 (Malme-3M): 3.34 µM (inactive)
- GI50 (RPMI-8226): 4.71 µM (inactive)
- GI50 (HCT-116): 4.25 µM (inactive)
- GI50 (MOLT-4): 4 µM (inactive)
- GI50 (HL-60): 3.47 µM (inactive)
- GI50 (NCI-H522): > 10 µM (inactive)
- GI50 (CAKI-1): 4.03 µM (inactive)
- GI50 (HOP-62): 7.57 µM (inactive)
- GI50 (TK-10): > 10 µM (inactive)
- GI50 (HCT-15): 0.604 µM
- GI50 (OVCAR-5): > 10 µM (inactive)

Structure (SMILES): O=C1/C(=C/c2ccccc2)CCCC1CN1CCCCC1 (configuration not stated)
- GI50 (SF-268): 1.78 µM (inactive)
- GI50 (UACC-257): 6.07 µM (inactive)
- GI50 (IGROV-1): 2.97 µM (inactive)
- GI50 (Malme-3M): 1.82 µM (inactive)
- GI50 (RPMI-8226): > 100 µM (inactive)
- GI50 (HCT-116): 1.68 µM (inactive)
- GI50 (MOLT-4): 1.43 µM (inactive)
- GI50 (NCI-H522): 0.242 µM (active)
- GI50 (KM12): 1.19 µM (inactive)
- GI50 (A498): 16.7 µM (inactive)
- GI50 (CAKI-1): 1.81 µM (inactive)
- GI50 (HOP-62): 20.8 µM (inactive)
- GI50 (TK-10): 2.59 µM (inactive)
- GI50 (HCT-15): 2.04 µM
- GI50 (OVCAR-5): 18.6 µM (inactive)
- GI50 (HOP-92): 2.24 µM (inactive)

Structure (SMILES): CN(CCCNC(=O)c1nn(-c2ccc(Cl)cc2Cl)c2c1Cc1ccccc1-2)CCCNC(=O)c1nn(-c2ccc(Cl)cc2Cl)c2c1Cc1ccccc1-2
- GI50 (SF-268): 1.96 µM (inactive)
- GI50 (UACC-257): 1.81 µM (inactive)
- GI50 (IGROV-1): 1.76 µM (inactive)
- GI50 (Malme-3M): 1.78 µM (inactive)
- GI50 (RPMI-8226): 1.21 µM (inactive)
- GI50 (HCT-116): 1.7 µM (inactive)
- GI50 (MOLT-4): 1.32 µM (inactive)
- GI50 (HL-60): 1.49 µM (inactive)
- GI50 (NCI-H522): 1.43 µM (inactive)
- GI50 (KM12): 2.37 µM (inactive)
- GI50 (A498): 1.71 µM (inactive)
- GI50 (CAKI-1): 1.55 µM (inactive)
- GI50 (HOP-62): 1.72 µM (inactive)
- GI50 (TK-10): 1.73 µM (inactive)
- GI50 (HCT-15): 1.84 µM
- GI50 (OVCAR-5): 1.57 µM (inactive)
- GI50 (HOP-92): 1.61 µM (inactive)

Structure (SMILES): Cc1noc(-c2ccc(C(=O)O)[nH]2)c1Br
- GI50 (SF-268): 46.1 µM (inactive)
- GI50 (UACC-257): > 100 µM (inactive)
- GI50 (IGROV-1): 16.4 µM (inactive)
- GI50 (Malme-3M): 69.8 µM (inactive)
- GI50 (RPMI-8226): > 100 µM (inactive)
- GI50 (HCT-116): 45.6 µM (inactive)
- GI50 (MOLT-4): > 100 µM (inactive)
- GI50 (NCI-H522): 39.7 µM (inactive)
- GI50 (KM12): > 100 µM (inactive)
- GI50 (A498): > 100 µM (inactive)
- GI50 (CAKI-1): 34.2 µM (inactive)
- GI50 (HOP-62): 22.5 µM (inactive)
- GI50 (TK-10): 31.5 µM (inactive)
- GI50 (HCT-15): > 100 µM
- GI50 (OVCAR-5): > 100 µM (inactive)
- GI50 (HOP-92): 12.2 µM (inactive)
